According to PubChem BioAssay (NCI):
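Results reflect a 48-hour exposure of cells in 96-well plates to compound at five concentrations. GI50: concentration for 50% inhibition of growth. TGI denotes the concentration required for complete inhibition of growth.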

Columns and labels:
Test in all cases: DTP human tumour cell line panel, 48 h
[1] = system: 786-0 renal
[2] = system: A498 renal
[3] = system: A549 NSCLC
[4] = system: ACHN renal
[5] = system: BT-549 breast
[6] = system: CAKI-1 renal
[7] = system: CCRF-CEM leukemia
[8] = system: COLO 205 colon
[9] = system: DU-145 prostate
[10] = system: EKVX NSCLC
[11] = system: HCC-2998 colon
[12] = system: HCT-116 colon
[13] = system: HCT-15 colon
[14] = system: HL-60(TB) leukemia
[15] = system: HOP-62 NSCLC
[16] = system: HOP-92 NSCLC
[17] = system: HS 578T breast
[18] = system: HT29 colon
[19] = system: IGROV1 ovarian
[20] = system: K-562 leukemia
[21] = system: KM12 colon
[22] = system: LOX IMVI melanoma
[23] = system: M14 melanoma
[24] = system: MALME-3M melanoma
[25] = system: MCF7 breast
[26] = system: MDA-MB-231 breast
[27] = system: MDA-MB-435
[28] = system: MOLT-4 leukemia
[29] = system: NCI-H226 lung
[30] = system: NCI-H23 lung
[31] = system: NCI-H460 lung
[32] = system: NCI-H522 lung
[33] = system: NCI/ADR-RES ovarian
[34] = system: OVCAR-3 ovarian
[35] = system: OVCAR-4 ovarian
[36] = system: OVCAR-5 ovarian
[37] = system: OVCAR-8 ovarian
[38] = system: PC-3 prostate
[39] = system: RPMI-8226 leukemia
[40] = system: RXF 393 renal
[41] = system: SF-268 CNS
[42] = system: SF-295 CNS
[43] = system: SF-539 CNS
[44] = system: SK-MEL-2 melanoma
[45] = system: SK-MEL-28 melanoma
[46] = system: SK-MEL-5 melanoma
[47] = system: SK-OV-3 ovarian
[48] = system: SN12C renal
[49] = system: SNB-19 CNS
[50] = system: SNB-75 CNS
[51] = system: SR leukemia
[52] = system: SW-620 colon
[53] = system: T-47D breast
[54] = system: TK-10 renal
[55] = system: U251 CNS
[56] = system: UACC-257 melanoma
[57] = system: UACC-62 melanoma
[58] = system: UO-31 renal

For COc1cc2c(cc1O)N=C[C@@H]1C[C@@H](F)CN1C2=O, the GI50 [1] was 2.05 µM, the TGI [1] was 12.3 µM and the GI50 [2] was 0.938 µM. It also gave a TGI [2] of 2.89 µM, a GI50 [3] of 7.97 µM and a TGI [3] of over 19.7 µM. For the same compound, the GI50 [4] was 2.58 µM, the TGI [4] was 6.15 µM and the GI50 [5] was 0.869 µM. It also gave a TGI [5] of 5.83 µM, a GI50 [6] of 0.281 µM and a TGI [6] of 1.5 µM. For the same compound, the GI50 [7] was 0.304 µM, the TGI [7] was 3.3 µM and the GI50 [8] was 3.18 µM. For the same compound, the TGI [8] was 11.5 µM, the GI50 [9] was 0.964 µM and the TGI [9] was 8.86 µM. For the same compound, the GI50 [10] was 2.85 µM, the TGI [10] was 9.8 µM and the GI50 [11] was 1.98 µM. It also gave a TGI [11] of 5.66 µM, a GI50 [12] of 1.83 µM and a TGI [12] of 5.94 µM. For the same compound, the GI50 [13] was 2.89 µM, the TGI [13] was 9.33 µM and the GI50 [14] was 0.588 µM. For the same compound, the TGI [14] was 10.1 µM, the GI50 [15] was 2.55 µM and the TGI [15] was 9.65 µM. It also gave a GI50 [16] of 0.269 µM, a TGI [16] of 0.719 µM and a GI50 [17] of 0.0964 µM. It also gave a TGI [17] of 2.13 µM, a GI50 [18] of 4.1 µM and a TGI [18] of over 44 µM. It also gave a GI50 [19] of 1.65 µM, a TGI [19] of 8.97 µM and a GI50 [20] of 0.367 µM. For the same compound, the TGI [20] was 4.81 µM, the GI50 [21] was 1.81 µM and the TGI [21] was 5.04 µM. It also gave a GI50 [22] of 2.03 µM, a TGI [22] of 7.21 µM and a GI50 [23] of 1.61 µM. It also gave a TGI [23] of 3.73 µM, a GI50 [24] of 0.789 µM and a TGI [24] of 2.88 µM. For the same compound, the GI50 [25] was 0.608 µM, the TGI [25] was 9.06 µM and the GI50 [26] was 1.84 µM. It also gave a TGI [26] of 6.21 µM, a GI50 [27] of 1.55 µM and a TGI [27] of 3.51 µM. For the same compound, the GI50 [28] was 0.283 µM, the TGI [28] was 1230 nM and the GI50 [29] was 2.37 µM. For the same compound, the TGI [29] was 5.39 µM, the GI50 [30] was 1.82 µM and the TGI [30] was 4.44 µM. It also gave a GI50 [31] of 1.79 µM, a TGI [31] of 4.61 µM and a GI50 [32] of 0.289 µM. The TGI [32] was 0.97 µM, the GI50 [33] was 1.87 µM and the TGI [33] was 6.15 µM. For the same compound, the TGI [34] was 0.808 µM, the GI50 [35] was 3.93 µM and the TGI [35] was 14.5 µM. The GI50 [36] was 0.965 µM, the TGI [36] was 6.66 µM and the GI50 [37] was 6.37 µM. It also gave a TGI [37] of 13.9 µM, a GI50 [38] of 1.83 µM and a TGI [38] of 9.18 µM. The GI50 [39] was 0.216 µM, the TGI [39] was 0.552 µM and the GI50 [40] was 0.898 µM. The TGI [40] was 2.16 µM, the GI50 [41] was 0.449 µM and the TGI [41] was 9.97 µM. It also gave a GI50 [42] of 0.712 µM, a TGI [42] of 4.33 µM and a GI50 [43] of 1.19 µM. For the same compound, the TGI [43] was 4.32 µM, the GI50 [44] was 1.16 µM and the GI50 [45] was 2.9 µM. For the same compound, the TGI [45] was 9.39 µM, the GI50 [46] was 0.817 µM and the TGI [46] was 2.32 µM. The GI50 [47] was 5.91 µM, the TGI [47] was 18.3 µM and the GI50 [48] was 2.52 µM. The TGI [48] was 8.71 µM, the GI50 [49] was 2.79 µM and the TGI [49] was 8.66 µM. It also gave a GI50 [50] of 15.5 µM, a TGI [50] of 52.4 µM and a GI50 [51] of 0.173 µM. For the same compound, the TGI [51] was 0.602 µM, the GI50 [52] was 1.16 µM and the TGI [52] was 4.9 µM. It also gave a GI50 [53] of 5.29 µM, a TGI [53] of 32.2 µM and a GI50 [54] of 1.9 µM. The TGI [54] was 13 µM, the GI50 [55] was 1.83 µM and the TGI [55] was 10.9 µM. For the same compound, the GI50 [56] was 17.5 µM, the TGI [56] was 34.4 µM and the GI50 [57] was 1.81 µM. For the same compound, the TGI [57] was 3.46 µM, the GI50 [58] was 1.14 µM and the TGI [58] was 9.62 µM.
In the case of Cc1cc(C)c(CNC(=O)c2cc(-c3ccc(CN4CCOCC4)cc3)cc3c2cnn3C2CCCC2)c(=O)[nH]1, the GI50 [1] is reported as 17.6 µM, the TGI [1] is reported as 42.4 µM and the GI50 [2] is reported as 15.5 µM. It also gave a TGI [2] of 34.6 µM, a GI50 [3] of 17.8 µM and a TGI [3] of 41.6 µM. The GI50 [4] was 15.1 µM, the TGI [4] was 34.6 µM and the GI50 [5] was 17.1 µM. The TGI [5] was 41.7 µM, the GI50 [6] was 16.1 µM and the TGI [6] was 42.2 µM. It also gave a GI50 [7] of 26.3 µM, a TGI [7] of 97.5 µM and a GI50 [8] of 14.7 µM. For the same compound, the TGI [8] was 34 µM, the GI50 [9] was 21.5 µM and the TGI [9] was 81 µM. It also gave a GI50 [10] of 11.8 µM, a TGI [10] of 28.2 µM and a GI50 [11] of 16.6 µM. It also gave a TGI [11] of 35.5 µM, a GI50 [12] of 18.2 µM and a TGI [12] of 50.2 µM. For the same compound, the GI50 [13] was 10.2 µM, the TGI [13] was 25.9 µM and the GI50 [14] was 16.5 µM. For the same compound, the TGI [14] was 55.2 µM, the GI50 [15] was 18 µM and the TGI [15] was 39.3 µM. For the same compound, the GI50 [16] was 10.2 µM, the TGI [16] was 27.2 µM and the GI50 [17] was 19.1 µM. For the same compound, the TGI [17] was 64 µM, the GI50 [18] was 11.8 µM and the TGI [18] was 27.1 µM. For the same compound, the GI50 [19] was 17.6 µM, the TGI [19] was 67.8 µM and the GI50 [20] was 21.4 µM. For the same compound, the TGI [20] was over 100 µM, the GI50 [21] was 18.6 µM and the TGI [21] was 49 µM. For the same compound, the GI50 [22] was 15.3 µM, the TGI [22] was 34.2 µM and the GI50 [23] was 18.8 µM. The TGI [23] was 43.1 µM, the GI50 [24] was 16.7 µM and the TGI [24] was 34.1 µM. The GI50 [25] was 10.8 µM, the TGI [25] was 28.8 µM and the GI50 [26] was 19.9 µM. It also gave a TGI [26] of 51.7 µM, a GI50 [27] of 15.9 µM and a TGI [27] of 35 µM. It also gave a GI50 [28] of 17.5 µM, a TGI [28] of over 100000 nM and a GI50 [29] of 17.5 µM. It also gave a TGI [29] of 37 µM, a GI50 [30] of 18.5 µM and a TGI [30] of 47.8 µM. The GI50 [31] was 16.1 µM, the TGI [31] was 43 µM and the GI50 [32] was 16.2 µM. The TGI [32] was 30.4 µM, the GI50 [33] was 15.1 µM and the TGI [33] was 42.5 µM. It also gave a GI50 [34] of 13.4 µM, a TGI [34] of 30.9 µM and a GI50 [35] of 21.3 µM. The TGI [35] was 91.6 µM, the GI50 [36] was 22.1 µM and the TGI [36] was 63.5 µM. It also gave a GI50 [37] of 17.3 µM, a TGI [37] of 57.9 µM and a GI50 [38] of 17.9 µM. It also gave a TGI [38] of 54.6 µM, a GI50 [39] of 13.7 µM and a TGI [39] of 50.7 µM. The GI50 [40] was 14.6 µM, the TGI [40] was 32.6 µM and the GI50 [41] was 13.9 µM. The TGI [41] was 43.8 µM, the GI50 [42] was 16.6 µM and the TGI [42] was 36.5 µM. For the same compound, the GI50 [43] was 16.1 µM, the TGI [43] was 34.4 µM and the GI50 [44] was 17.8 µM. The TGI [44] was 35.4 µM, the GI50 [45] was 15.7 µM and the TGI [45] was 32.4 µM. For the same compound, the GI50 [46] was 13.7 µM, the TGI [46] was 27.3 µM and the GI50 [47] was 20.1 µM. It also gave a TGI [47] of 44.5 µM, a GI50 [48] of 19.3 µM and a TGI [48] of 46.6 µM. For the same compound, the GI50 [49] was 24.7 µM, the TGI [49] was 77.1 µM and the GI50 [50] was 12.6 µM. It also gave a TGI [50] of 32.4 µM, a GI50 [51] of 22.4 µM and a TGI [51] of 65.5 µM. For the same compound, the GI50 [52] was 25.3 µM, the TGI [52] was over 100 µM and the GI50 [53] was 12.9 µM. For the same compound, the TGI [53] was 50.4 µM, the GI50 [54] was 16.4 µM and the TGI [54] was 35.9 µM. It also gave a GI50 [55] of 15.2 µM, a TGI [55] of 31.7 µM and a GI50 [56] of 21 µM. It also gave a TGI [56] of 42.8 µM, a GI50 [57] of 17.8 µM and a TGI [57] of 43.2 µM. For the same compound, the GI50 [58] was 8.8 µM and the TGI [58] was 26.6 µM.
